pIC50: −log10 of the molar value.

IC50 data for 26 molecules are collected here from patent US9403813B2, “Azetidine amide derivatives as orexin receptor antagonists” (ACTELION PHARMACEUTICALS LTD, priority 2013, dated 2016).

For test [1], the target named is human orexin-2 receptor (Homo sapiens (Human), UniProt O43614). In words: Intracellular calcium measurements (FLIPR), antagonism of orexin-A response. The conditions noted are these: CHO cells expressing human orexin-2 receptor, 3 nM orexin-A, geometric mean if determined several times, read-out: IC50 OX2. The format is cell-based. In outline:
(§1)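 CHO cells expressing human OX1 or OX2 receptor, loaded with fluo-4 AM plus probenecid, preincubated with antagonist 120 min before 3 nM orexin-A challenge. FLIPR calcium peak heights compared with agonist-plus-vehicle response. IC50 possibly normalized to on-plate reference; geometric mean of repeat determinations.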

Test [2] concerns the target human orexin-1 receptor (Homo sapiens (Human), UniProt O43613). The test is described as above. It is filed as cell-based. The conditions noted are these: CHO cells expressing human orexin-1 receptor, 3 nM orexin-A, geometric mean if determined several times, read-out: IC50 OX1. In outline: as §1

human orexin-1 receptor, sequence (O43613 whole entry): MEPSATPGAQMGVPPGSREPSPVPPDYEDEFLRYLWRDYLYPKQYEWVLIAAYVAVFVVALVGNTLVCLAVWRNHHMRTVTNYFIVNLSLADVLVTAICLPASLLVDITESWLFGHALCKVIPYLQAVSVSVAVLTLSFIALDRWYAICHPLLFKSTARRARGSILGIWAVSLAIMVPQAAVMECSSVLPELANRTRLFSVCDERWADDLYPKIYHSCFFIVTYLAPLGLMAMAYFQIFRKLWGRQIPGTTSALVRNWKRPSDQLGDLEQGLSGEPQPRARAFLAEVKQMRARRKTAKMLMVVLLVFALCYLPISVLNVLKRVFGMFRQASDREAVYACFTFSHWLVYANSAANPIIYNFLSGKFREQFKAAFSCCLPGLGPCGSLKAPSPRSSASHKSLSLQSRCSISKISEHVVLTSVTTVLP
human orexin-2 receptor, sequence (O43614 whole entry): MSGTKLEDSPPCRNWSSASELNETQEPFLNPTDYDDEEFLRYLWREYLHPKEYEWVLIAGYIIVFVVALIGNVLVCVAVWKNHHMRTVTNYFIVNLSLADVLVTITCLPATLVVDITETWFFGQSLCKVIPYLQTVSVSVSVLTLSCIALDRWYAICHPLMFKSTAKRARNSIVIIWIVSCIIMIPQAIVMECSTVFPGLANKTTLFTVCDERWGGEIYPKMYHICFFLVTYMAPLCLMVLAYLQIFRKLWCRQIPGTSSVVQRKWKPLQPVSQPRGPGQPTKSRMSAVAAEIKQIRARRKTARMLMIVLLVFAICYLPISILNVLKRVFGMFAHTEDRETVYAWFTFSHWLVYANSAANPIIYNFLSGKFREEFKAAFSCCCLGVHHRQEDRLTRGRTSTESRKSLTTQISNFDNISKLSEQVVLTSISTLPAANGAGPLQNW

As for `Cc1cccc(-c2ocnc2C(=O)N2CC[C@H]2c2nc(-c3cccc(Cl)c3C)no2)c1` [Example 67, {(S)-2-[3-(3-Chloro-2-methyl-phenyl)-[1,2,4]oxadiazol-5-yl]-azetidin-1-yl}-(5-m-tolyl-oxazol-4-yl)-methanone], the pIC50 – broadly, the IC50 on a negative log10 scale, so that one unit is a factor of ten – in test [1] is 6.20; in test [2], 6.36.

Regarding `Cc1c(Cl)cccc1-c1noc([C@@H]2CCN2C(=O)c2ccccc2-n2nccn2)n1` [Example 68, {(S)-2-[3-(3-Chloro-2-methyl-phenyl)-[1,2,4]oxadiazol-5-yl]-azetidin-1-yl}-(2-[1,2,3]triazol-2-yl-phenyl)-methanone], the pIC50 in test [1] was 7.13; in test [2], 5.96.

Turning to `Cc1cccc(-c2scnc2C(=O)N2CC[C@H]2c2nc(-c3cccc(Cl)c3C)no2)c1` [Example 69, {(S)-2-[3-(3-Chloro-2-methyl-phenyl)-[1,2,4]oxadiazol-5-yl]-azetidin-1-yl}-(5-m-tolyl-thiazol-4-yl)-methanone], the figures for the pIC50 in test [1] and in test [2] were 6.62 and 6.06, respectively.

`Cc1cc(C(=O)N2CC[C@H]2c2nc(-c3cccc(Cl)c3C)no2)c(-n2nccn2)cc1C` [Example 70, {(S)-2-[3-(3-Chloro-2-methyl-phenyl)-[1,2,4]oxadiazol-5-yl]-azetidin-1-yl}-(4,5-dimethyl-2-[1,2,3]triazol-2-yl-phenyl)-methanone]: the pIC50 is 8.70 in test [1] and 7.01 in test [2].

Turning to `Cc1cccc(-c2oc(C)nc2C(=O)N2CC[C@H]2c2nc(-c3cccc(Cl)c3C)no2)c1` [Example 71, {(S)-2-[3-(3-Chloro-2-methyl-phenyl)-[1,2,4]oxadiazol-5-yl]-azetidin-1-yl}-(2-methyl-5-m-tolyl-oxazol-4-yl)-methanone], the values for the negative-log IC50 (pIC50) in test [1] and in test [2] were 6.26 and 6.16, respectively.

As for `Cc1onc(-c2ccccc2Cl)c1C(=O)N1CC[C@H]1c1nc(-c2cccc(Cl)c2C)no1` [Example 72, {(S)-2-[3-(3-Chloro-2-methyl-phenyl)-[1,2,4]oxadiazol-5-yl]-azetidin-1-yl}-[3-(2-chloro-phenyl)-5-methyl-isoxazol-4-yl]-methanone], the pIC50 was 6.18 in test [1] and 5.85 in test [2].

For the molecule `Cc1c(Cl)cccc1-c1noc([C@@H]2CCN2C(=O)c2ccccc2-c2ccccc2)n1` [Example 73, Biphenyl-2-yl-{(S)-2-[3-(3-chloro-2-methyl-phenyl)-[1,2,4]oxadiazol-5-yl]-azetidin-1-yl}-methanone], the negative-log IC50 (pIC50) is 7.70 in test [1] and 6.42 in test [2].

For the molecule `COc1cc(C(=O)N2CC[C@H]2c2nc(-c3cccc(Cl)c3C)no2)c(-n2nccn2)cc1Cl` [Example 74, (4-Chloro-5-methoxy-2-[1,2,3]triazol-2-yl-phenyl)-{(S)-2-[3-(3-chloro-2-methyl-phenyl)-[1,2,4]oxadiazol-5-yl]-azetidin-1-yl}-methanone], the pIC50 was 8.22 in test [1] and 6.24 in test [2].

Consider `COc1cc(C(=O)N2CC[C@H]2c2nc(-c3ccccc3OC(F)(F)F)no2)c(-n2nccn2)cc1Cl` [Example 75, (4-Chloro-5-methoxy-2-[1,2,3]triazol-2-yl-phenyl)-{(S)-2-[3-(2-trifluoromethoxy-phenyl)-[1,2,4]oxadiazol-5-yl]-azetidin-1-yl}-methanone], for which the pIC50 is 7.92 in test [1] and 6.42 in test [2].

For the molecule `Cc1c(Cl)cccc1-c1noc([C@@H]2CCN2C(=O)c2ccc(Cl)cc2-n2nccn2)n1` [Example 76, {(S)-2-[3-(3-Chloro-2-methyl-phenyl)-[1,2,4]oxadiazol-5-yl]-azetidin-1-yl}-(4-chloro-2-[1,2,3]triazol-2-yl-phenyl)-methanone], the pIC50 is 7.96 in test [1] and 6.04 in test [2].

Consider `O=C(c1ccc(Cl)cc1-n1nccn1)N1CC[C@H]1c1nc(-c2ccccc2OC(F)(F)F)no1` [Example 77, (4-Chloro-2-[1,2,3]triazol-2-yl-phenyl)-{(S)-2-[3-(2-trifluoromethoxy-phenyl)-[1,2,4]oxadiazol-5-yl]-azetidin-1-yl}-methanone], for which the negative-log IC50 (pIC50) in test [1] was 7.55; in test [2], 6.21.

Take `Cc1ccc(C(=O)N2CC[C@H]2c2nc(-c3cccc(Cl)c3C)no2)c(-n2nccn2)c1` [Example 78, {(S)-2-[3-(3-Chloro-2-methyl-phenyl)-[1,2,4]oxadiazol-5-yl]-azetidin-1-yl}-(4-methyl-2-[1,2,3]triazol-2-yl-phenyl)-methanone]: the pIC50 in test [1] was 7.66; in test [2], 6.19.

Turning to `Cc1ccc(C(=O)N2CC[C@H]2c2nc(-c3ccccc3OC(F)(F)F)no2)c(-n2nccn2)c1` [Example 79, (4-Methyl-2-[1,2,3]triazol-2-yl-phenyl)-{(S)-2-[3-(2-trifluoromethoxy-phenyl)-[1,2,4]oxadiazol-5-yl]-azetidin-1-yl}-methanone], the figures for the pIC50 in test [1] and in test [2] were 7.77 and 6.47, respectively.

On to `Cc1c(Cl)cccc1-c1noc([C@@H]2CCN2C(=O)c2cc(Cl)ccc2-n2nccn2)n1` [Example 80, {(S)-2-[3-(3-Chloro-2-methyl-phenyl)-[1,2,4]oxadiazol-5-yl]-azetidin-1-yl}-(5-chloro-2-[1,2,3]triazol-2-yl-phenyl)-methanone], for which the pIC50 in test [1] is 7.31; in test [2] it was 6.12.

Turning to `O=C(c1cc(Cl)ccc1-n1nccn1)N1CC[C@H]1c1nc(-c2ccccc2OC(F)(F)F)no1` [Example 81, (5-Chloro-2-[1,2,3]triazol-2-yl-phenyl)-{(S)-2-[3-(2-trifluoromethoxy-phenyl)-[1,2,4]oxadiazol-5-yl]-azetidin-1-yl}-methanone], the negative logarithm of the IC50 (pIC50) was 7.33 in test [1] and 6.47 in test [2].

In the case of `Cc1cc(-n2nccn2)c(C(=O)N2CC[C@H]2c2nc(-c3cccc(Cl)c3C)no2)cc1Cl` [Example 82, {(S)-2-[3-(3-Chloro-2-methyl-phenyl)-[1,2,4]oxadiazol-5-yl]-azetidin-1-yl}-(5-chloro-4-methyl-2-[1,2,3]triazol-2-yl-phenyl)-methanone], the figures for the pIC50 in test [1] and in test [2] were 8.00 and 6.77, respectively.

Take `Cc1cc(-n2nccn2)c(C(=O)N2CC[C@H]2c2nc(-c3ccccc3OC(F)(F)F)no2)cc1Cl` [Example 83, (5-Chloro-4-methyl-2-[1,2,3]triazol-2-yl-phenyl)-{(S)-2-[3-(2-trifluoromethoxy-phenyl)-[1,2,4]oxadiazol-5-yl]-azetidin-1-yl}-methanone]: the negative logarithm of the IC50 (pIC50) in test [1] was 7.89; in test [2], 6.78.

With `Cc1ccc(-n2nccn2)c(C(=O)N2CC[C@H]2c2noc(-c3ccccc3OC(F)(F)F)n2)c1` [Example 84, (5-Methyl-2-[1,2,3]triazol-2-yl-phenyl)-{(S)-2-[5-(2-trifluoromethoxy-phenyl)-[1,2,4]oxadiazol-3-yl]-azetidin-1-yl}-methanone], the results for the negative-log IC50 (pIC50) in test [1] and in test [2] were 7.96 and 6.99, respectively.

Regarding `Cc1cc(C(=O)N2CC[C@H]2c2noc(-c3ccccc3OC(F)(F)F)n2)c(-n2nccn2)cc1C` [Example 85, (4,5-Dimethyl-2-[1,2,3]triazol-2-yl-phenyl)-{(S)-2-[5-(2-trifluoromethoxy-phenyl)-[1,2,4]oxadiazol-3-yl]-azetidin-1-yl}-methanone], the pIC50 was 8.52 in test [1] and 7.47 in test [2].

In the case of `COc1cc(C(=O)N2CC[C@H]2c2noc(-c3ccccc3OC(F)(F)F)n2)c(-n2nccn2)cc1C` [Example 86, (5-Methoxy-4-methyl-2-[1,2,3]triazol-2-yl-phenyl)-{(S)-2-[5-(2-trifluoromethoxy-phenyl)-[1,2,4]oxadiazol-3-yl]-azetidin-1-yl}-methanone], the negative logarithm of the IC50 (pIC50) was 8.40 in test [1] and 6.71 in test [2].

As for `COc1cc(C(=O)N2CC[C@H]2c2noc(-c3ccccc3OC(F)(F)F)n2)c(-n2nccn2)cc1F` [Example 87, (4-Fluoro-5-methoxy-2-[1,2,3]triazol-2-yl-phenyl)-{(S)-2-[5-(2-trifluoromethoxy-phenyl)-[1,2,4]oxadiazol-3-yl]-azetidin-1-yl}-methanone], the pIC50 in test [1] was 7.11; in test [2], 5.87.

With `COc1cc(C(=O)N2CC[C@H]2c2noc(-c3cccc(F)c3OC)n2)c(-n2nccn2)cc1C` [Example 88, {(S)-2-[5-(3-Fluoro-2-methoxy-phenyl)-[1,2,4]oxadiazol-3-yl]-azetidin-1-yl}-(5-methoxy-4-methyl-2-[1,2,3]triazol-2-yl-phenyl)-methanone], the pIC50 in test [1] is 9.22; in test [2], 6.75.

For the molecule `Cc1cc(C(=O)N2CC[C@H]2c2noc(-c3cccc(F)c3C)n2)c(-n2nccn2)cc1C` [Example 89, (4,5-Dimethyl-2-[1,2,3]triazol-2-yl-phenyl)-{(S)-2-[5-(3-fluoro-2-methyl-phenyl)-[1,2,4]oxadiazol-3-yl]-azetidin-1-yl}-methanone], the pIC50 in test [1] is 8.52; in test [2], 7.09.

As for `CCOc1ncccc1-c1nc([C@@H]2CCN2C(=O)c2cc(C)ccc2-n2nccn2)no1` [Example 90, {(S)-2-[5-(2-Ethoxy-pyridin-3-yl)-[1,2,4]oxadiazol-3-yl]-azetidin-1-yl}-(5-methyl-2-[1,2,3]triazol-2-yl-phenyl)-methanone], the pIC50 in test [1] is 8.70; in test [2], 7.28.

Take `CCOc1ncccc1-c1nc([C@@H]2CCN2C(=O)c2cc(C)c(C)cc2-n2nccn2)no1` [Example 91, (4,5-Dimethyl-2-[1,2,3]triazol-2-yl-phenyl)-{(S)-2-[5-(2-ethoxy-pyridin-3-yl)-[1,2,4]oxadiazol-3-yl]-azetidin-1-yl}-methanone]: the pIC50 in test [1] was 9.22; in test [2] it was 7.77.

Consider `CCOc1ncccc1-c1nc([C@@H]2CCN2C(=O)c2cc(OC)c(C)cc2-n2nccn2)no1` [Example 92, {(S)-2-[5-(2-Ethoxy-pyridin-3-yl)-[1,2,4]oxadiazol-3-yl]-azetidin-1-yl}-(5-methoxy-4-methyl-2-[1,2,3]triazol-2-yl-phenyl)-methanone], for which the figures for the negative logarithm of the IC50 (pIC50) in test [1] and in test [2] were 9.00 and 7.43, respectively.
